Assay results from patent publication US5840684A, “Glycopeptide antibiotic derivatives” (Eli Lilly and Company, priority 1995, dated 1998).
In brackets after ≈: the same amount, converted by molar mass.

Columns and labels:
[1] = system: Staphylococcus aureus S13E; type: cell-based
Experimental: (§1) The MIC's were determined using a standard broth micro-dilution assay.

[2] = system: Staphylococcus aureus SA1199B; type: cell-based
Experimental: as §1

[3] = system: Entercoccus faecium 180-1; test: broth micro-dilution MIC; type: cell-based
Experimental: as §1

Entercoccus faecium 276 = test: broth micro-dilution MIC; type: cell-based
Experimental: as §1

[4] = system: Staphylococcus aureus 446; test: broth micro-dilution MIC; type: cell-based
Experimental: as §1

[5] = system: Staphylococcus aureus 447; test: broth micro-dilution MIC; type: cell-based
Experimental: as §1

[6] = system: Staphylococcus aureus 489; test: broth micro-dilution MIC; type: cell-based
Experimental: as §1

[7] = system: Staphylococcus aureus 491; test: broth micro-dilution MIC; type: cell-based
Experimental: as §1

[8] = system: Staphylococcus aureus SA1199A; test: broth micro-dilution MIC; type: cell-based
Experimental: as §1

[9] = system: Staphylococcus aureus SA1199; test: broth micro-dilution MIC; type: cell-based
Experimental: as §1

[10] = system: Staphylococcus aureus X400; test: broth micro-dilution MIC; type: cell-based
Experimental: as §1

[11] = system: Staphylococcus aureus X778; test: broth micro-dilution MIC; type: cell-based
Experimental: as §1

[12] = system: Streptococcus pyogenes C203; test: broth micro-dilution MIC; type: cell-based
Experimental: as §1

Entercoccus faecium 180 = test: broth micro-dilution MIC; type: cell-based; settings: Entercoccus faecium 180
Experimental: (§2) The formula I compounds have in vitro and in vivo activity against Gram-positive pathogenic bacteria. The MIC's were determined using a standard broth micro-dilution assay.

Entercoccus faecium 2041 = test: broth micro-dilution MIC; type: cell-based; settings: Entercoccus faecium 2041
Experimental: as §2

[13] = system: Enterococcus gallinarum 245; test: broth micro-dilution MIC; type: cell-based; settings: Enterococcus gallinarum 245
Experimental: as §2

Escherichia coli EC14 = test: broth micro-dilution MIC; type: cell-based
Experimental: as §2

[14] = system: Haemophilus influenzae RD; test: broth micro-dilution MIC; type: cell-based; settings: Haemophilus influenzae RD
Experimental: as §2

[15] = system: Staphylococcus epidermidis 270; test: broth micro-dilution MIC; type: cell-based
Experimental: as §2

[16] = system: Staphylococcus haemolyticus 105; test: broth micro-dilution MIC; type: cell-based
Experimental: as §2

[17] = system: Staphylococcus haemolyticus 415; test: broth micro-dilution MIC; type: cell-based
Experimental: as §2

[18] = system: Streptococcus pneumoniae P1; test: broth micro-dilution MIC; type: cell-based
Experimental: as §2

[19] = system: vancomycin-resistant enterococci; test: broth micro-dilution, mean geometric MIC; type: cell-based, Enterococcus faecium and Enterococcus faecalis; settings: enterococci, 24-hour incubation
[20] = system: vancomycin-susceptible enterococci; test: broth micro-dilution, mean geometric MIC; type: cell-based, Enterococcus faecium and Enterococcus faecalis; settings: enterococci, 24-hour incubation

SMILES | MIC [1] [µg/mL] | MIC [2] [µg/mL] | MIC [3] [µg/mL] | MIC (Entercoccus faecium 276) [µg/mL] | MIC [4] [µg/mL] | MIC [5] [µg/mL] | MIC [6] [µg/mL] | MIC [7] [µg/mL] | MIC [8] [µg/mL] | MIC [9] [µg/mL] | MIC [10] [µg/mL] | MIC [11] [µg/mL] | MIC [12] [µg/mL] | MIC (Entercoccus faecium 180) [µg/mL] | MIC (Entercoccus faecium 2041) [µg/mL] | MIC [13] [µg/mL] | MIC (Escherichia coli EC14) [µg/mL] | MIC [14] [µg/mL] | MIC [15] [µg/mL] | MIC [16] [µg/mL] | other results
CC(C)CC(C(=O)NC1C(=O)NC(CC(N)=O)C(=O)NC2C(=O)NC3C(=O)NC(C(=O)NC(C(=O)O)c4cc(O)cc(O)c4-c4cc3ccc4O)C(OC3CC(C)(N)C(O)C(C)O3)c3ccc(c(Cl)c3)Oc3cc2cc(c3OC2OC(CO)C(O)C(O)C2OC2CC(C)(NCc3c4c(cc5ccccc35)CCCC4)C(O)C(C)O2)Oc2ccc(cc2Cl)C1O)N(C)Cc1c2c(cc3ccccc13)CCCC2 (stereo not drawn) [Compound 262] | 1 (≈ 0.505 µM) | 0.5 (≈ 0.252 µM) | ≤ 0.06 | 2 (≈ 1.01 µM) | 2 (≈ 1.01 µM) | 1 (≈ 0.505 µM) | 1 (≈ 0.505 µM) | 1 (≈ 0.505 µM) | ≤ 0.06 | 0.5 (≈ 0.252 µM) | 2 (≈ 1.01 µM) | 1 (≈ 0.505 µM) | ≤ 0.06 | 1 (≈ 0.505 µM) | 0.5 (≈ 0.252 µM) | 2 (≈ 1.01 µM) | > 64 | > 64 | 1 (≈ 0.505 µM) | 4 (≈ 2.02 µM) | MIC [17]: 2 µg/mL (≈ 1.01 µM); MIC [18]: ≤ 0.06 µg/mL; mean geometric MIC, Vancomycin Resistant Strains [19]: 5.7 µg/mL; mean geometric MIC, Vancomycin Sensitive Strains [20]: 0.17 µg/mL
CNC(CC(C)C)C(=O)NC1C(=O)NC(CC(N)=O)C(=O)NC2C(=O)NC3C(=O)NC(C(=O)NC(C(=O)O)c4cc(O)cc(O)c4-c4cc3ccc4O)C(OC3CC(C)(NCc4ccc(-c5ccc([N+](=O)[O-])cc5)cc4)C(O)C(C)O3)c3ccc(c(Cl)c3)Oc3cc2cc(c3OC2OC(CO)C(O)C(O)C2OC2CC(C)(NCc3ccc(-c4ccc([N+](=O)[O-])cc4)cc3)C(O)C(C)O2)Oc2ccc(cc2Cl)C1O (stereo not drawn) [Compound 263] | 1 (≈ 0.496 µM) | 1 (≈ 0.496 µM) | ≤ 0.06 | 0.5 (≈ 0.248 µM) | 1 (≈ 0.496 µM) | 2 (≈ 0.993 µM) | 0.25 (≈ 0.124 µM) | 1 (≈ 0.496 µM) | ≤ 0.06 | 1 (≈ 0.496 µM) | 0.5 (≈ 0.248 µM) | 0.5 (≈ 0.248 µM) | ≤ 0.06 | ≤ 0.06 | ≤ 0.06 | 8 (≈ 3.97 µM) | 65 (≈ 32.3 µM) | > 64 | 4 (≈ 1.99 µM) | 16 (≈ 7.94 µM) | MIC [17]: 8 µg/mL (≈ 3.97 µM); MIC [18]: ≤ 0.06 µg/mL; mean geometric MIC, Vancomycin Resistant Strains [19]: 1.7 µg/mL; mean geometric MIC, Vancomycin Sensitive Strains [20]: 0.29 µg/mL
CC(C)CC(C(=O)NC1C(=O)NC(CC(N)=O)C(=O)NC2C(=O)NC3C(=O)NC(C(=O)NC(C(=O)O)c4cc(O)cc(O)c4-c4cc3ccc4O)C(OC3CC(C)(N)C(O)C(C)O3)c3ccc(c(Cl)c3)Oc3cc2cc(c3OC2OC(CO)C(O)C(O)C2OC2CC(C)(NCc3ccc4c(c3)OCO4)C(O)C(C)O2)Oc2ccc(cc2Cl)C1O)N(C)Cc1ccc2c(c1)OCO2 (stereo not drawn) [Compound 265] | 0.5 (≈ 0.269 µM) | 0.5 (≈ 0.269 µM) | ≤ 0.06 | 0.5 (≈ 0.269 µM) | 2 (≈ 1.07 µM) | 2 (≈ 1.07 µM) | 0.5 (≈ 0.269 µM) | 2 (≈ 1.07 µM) | ≤ 0.06 | 2 (≈ 1.07 µM) | 0.5 (≈ 0.269 µM) | 0.5 (≈ 0.269 µM) | ≤ 0.06 | 8 (≈ 4.3 µM) | 0.25 (≈ 0.134 µM) | 1 (≈ 0.537 µM) | > 64 | > 64 | 4 (≈ 2.15 µM) | 8 (≈ 4.3 µM) | MIC [17]: 1 µg/mL (≈ 0.537 µM); MIC [18]: ≤ 0.06 µg/mL; mean geometric MIC, Vancomycin Resistant Strains [19]: 54 µg/mL; mean geometric MIC, Vancomycin Sensitive Strains [20]: 0.87 µg/mL
CC(C)CC(C(=O)NC1C(=O)NC(CC(N)=O)C(=O)NC2C(=O)NC3C(=O)NC(C(=O)NC(C(=O)O)c4cc(O)cc(O)c4-c4cc3ccc4O)C(OC3CC(C)(N)C(O)C(C)O3)c3ccc(c(Cl)c3)Oc3cc2cc(c3OC2OC(CO)C(O)C(O)C2OC2CC(C)(NCc3ccc(Oc4ccc([N+](=O)[O-])cc4)cc3)C(O)C(C)O2)Oc2ccc(cc2Cl)C1O)N(C)Cc1ccc(Oc2ccc([N+](=O)[O-])cc2)cc1 (stereo not drawn) [Compound 267] | 1 (≈ 0.489 µM) | 1 (≈ 0.489 µM) | 0.125 (≈ 0.0611 µM) | 1 (≈ 0.489 µM) | 0.5 (≈ 0.244 µM) | 0.5 (≈ 0.244 µM) | 0.25 (≈ 0.122 µM) | 1 (≈ 0.489 µM) | ≤ 0.06 | 2 (≈ 0.977 µM) | 0.5 (≈ 0.244 µM) | 1 (≈ 0.489 µM) | ≤ 0.06 | 0.25 (≈ 0.122 µM) | 0.25 (≈ 0.122 µM) | 4 (≈ 1.95 µM) | > 64 | > 64 | 4 (≈ 1.95 µM) | 16 (≈ 7.82 µM) | MIC [17]: 4 µg/mL (≈ 1.95 µM); MIC [18]: ≤ 0.06 µg/mL; mean geometric MIC, Vancomycin Resistant Strains [19]: 2.8 µg/mL; mean geometric MIC, Vancomycin Sensitive Strains [20]: 0.22 µg/mL
COc1cc(CNC2(C)CC(OC3C(Oc4c5cc6cc4Oc4ccc(cc4Cl)C(OC4CC(C)(N)C(O)C(C)O4)C4NC(=O)C(NC(=O)C6NC(=O)C(CC(N)=O)NC(=O)C(NC(=O)C(CC(C)C)N(C)Cc6ccc(OCc7ccccc7)c(OC)c6)C(O)c6ccc(c(Cl)c6)O5)c5ccc(O)c(c5)-c5c(O)cc(O)cc5C(C(=O)O)NC4=O)OC(CO)C(O)C3O)OC(C)C2O)ccc1OCc1ccccc1 (stereo not drawn) [Compound 268] | 4 (≈ 1.96 µM) | 2 (≈ 0.978 µM) | 0.25 (≈ 0.122 µM) | 2 (≈ 0.978 µM) | 2 (≈ 0.978 µM) | 4 (≈ 1.96 µM) | 1 (≈ 0.489 µM) | 1 (≈ 0.489 µM) | 0.5 (≈ 0.244 µM) | 4 (≈ 1.96 µM) | 2 (≈ 0.978 µM) | 2 (≈ 0.978 µM) | ≤ 0.06 | 0.5 (≈ 0.244 µM) | 1 (≈ 0.489 µM) | 4 (≈ 1.96 µM) | > 64 | > 64 | 1 (≈ 0.489 µM) | 8 (≈ 3.91 µM) | MIC [17]: 4 µg/mL (≈ 1.96 µM); MIC [18]: ≤ 0.06 µg/mL; mean geometric MIC, Vancomycin Resistant Strains [19]: 6.7 µg/mL; mean geometric MIC, Vancomycin Sensitive Strains [20]: 0.87 µg/mL
CC(C)CC(C(=O)NC1C(=O)NC(CC(N)=O)C(=O)NC2C(=O)NC3C(=O)NC(C(=O)NC(C(=O)O)c4cc(O)cc(O)c4-c4cc3ccc4O)C(OC3CC(C)(N)C(O)C(C)O3)c3ccc(c(Cl)c3)Oc3cc2cc(c3OC2OC(CO)C(O)C(O)C2OC2CC(C)(NCc3cccc4c3OCO4)C(O)C(C)O2)Oc2ccc(cc2Cl)C1O)N(C)Cc1cccc2c1OCO2 (stereo not drawn) [Compound 269] | 1 (≈ 0.537 µM) | 0.5 (≈ 0.269 µM) | 0.125 (≈ 0.0672 µM) | 0.125 (≈ 0.0672 µM) | 2 (≈ 1.07 µM) | 4 (≈ 2.15 µM) | 0.25 (≈ 0.134 µM) | 1 (≈ 0.537 µM) | ≤ 0.06 | 0.25 (≈ 0.134 µM) | 0.5 (≈ 0.269 µM) | 0.25 (≈ 0.134 µM) | ≤ 0.06 | 4 (≈ 2.15 µM) | 0.125 (≈ 0.0672 µM) | 4 (≈ 2.15 µM) | > 64 | > 64 | 8 (≈ 4.3 µM) | 8 (≈ 4.3 µM) | MIC [17]: 4 µg/mL (≈ 2.15 µM); MIC [18]: ≤ 0.06 µg/mL; mean geometric MIC, Vancomycin Resistant Strains [19]: 38 µg/mL; mean geometric MIC, Vancomycin Sensitive Strains [20]: 1.1 µg/mL
